# Measurements reported in publication PMC11926788, “Effect of SSR504734, a Selective Glycine Transporter Type 1 Inhibitor, on Seizure Thresholds, Neurotransmitter Levels, and Inflammatory Markers in Mice” (ACS Chemical Neuroscience, 2025).
# Where a name gives a salt, the structure may show the parent alone.
# Tested on: glutamate, GABA, adenosine, glycine concentrations in cortex, hippocampus, brainstem
# Experiment: Determination of neurotransmitters in brain structures (LC-MS/MS, HPLC-FLD)
# Format: in vivo, mice
# Procedure: Mice were administered with SSR504734 or saline acutely or repeatedly for 14 days and subjected to maximal electroshock seizures 60 min after treatment. Immediately following seizure induction, the animals were decapitated. Brains were removed from the skull and washed with ice-cold 0.9% NaCl. Cortex, hippocampus, and brainstem were isolated by microdissection and collected into Eppendorf tubes. Samples were frozen in liquid nitrogen and kept at −80 °C until the day of analysis.
# Adenosine, GABA, and glutamate concentrations in mouse cortex, brainstem, and hippocampus were determined using an LC-MS/MS method. Stock solutions of GABA, adenosine, glutamate, and their internal standards (ISs), i.e., adenosine-13C5, GABA-d6, and glutamate-d5 (Toronto Research Chemicals Inc., Canada), were prepared using methanol for GABA and its IS and deionized water for adenosine, glutamate, and their ISs and stored at 4 °C. The stock solutions of GABA, adenosine, and glutamate were then appropriately diluted with acetonitrile/water 1:1 (v/v) solution to achieve various concentration levels required for the experiments. Brain tissue samples were homogenized using a Bead Ruptor Elite, bead mill homogenizer (Omni International, USA) with 90 μL of deionized water per 10 mg of tissue. The resulting homogenates were further diluted at 1:10 to 1:100 (v/v) ratios (depending on the expected analyte concentration) with acetonitrile/water 1:1 (v/v) solution. […] The supernatants were then placed in autosampler vials.
# Analyte separation was performed on an Exion LC AC system (Sciex, USA) coupled with a QTRAP 4500 triple quadrupole MS instrument (Sciex, USA). A 0.2 to 2 μL aliquot of sample was injected via an autosampler maintained at 15 °C into an XBridge HILIC (Waters, Ireland) analytical column (2.1 × 150 mm, 3.5 μm) with the column oven set at 25 °C.
# MS detection employed electrospray ionization (ESI) in positive ion mode. According to the results of flow-injection analysis, curtain gas was set at 30 psi, ion spray voltage at 5500 V, and the source temperature at 450 °C, with ion spray gases 1 and 2 at 50 and 40 psi, respectively.
# Data acquisition and processing were conducted with Analyst version 1.7 software. The calibration curves were constructed by plotting the ratio of the peak areas of the target analytes to those of their respective ISs against the concentrations of the analytes. These curves were derived using a weighted linear regression analysis method (1/x). Due to the availability of stable isotope-labeled standards and the high endogenous concentrations of adenosine, glutamate, and GABA in the brain tissue, the calibrators were prepared in water.
# Glycine concentrations in brain structures were analyzed by using high-performance liquid chromatography with fluorescence detection (HPLC-FLD). A stock solution of glycine (20 mg/mL) was prepared in water and diluted with the same solvent to prepare working standard solutions at the concentration range of 0.2–20 μg/mL. The homogenates were obtained as described above, and they were centrifuged before analysis for 5 min at 10,000 rpm (Eppendorf miniSpin centrifuge). To prepare samples for analysis, 2 μL (for brainstem) or 5 μL (for the remaining structures) of homogenate supernatants was transferred to Eppendorf tubes and diluted with water to 20 μL. […] The reaction mixture was vortexed for 15 s, spinned down to make sure that all the sample is at the bottom of the tube, and incubated for 3 min at room temperature in darkness. The aliquots of 5 μL were injected into the column. […] The EZChrom Elite Client/Server v. 3.2 software was used for data collection and analysis. […] The mobile phase consisted of methanol (solvent A) and 0.05 M phosphate buffer adjusted to pH = 4.5 with phosphoric acid 30% (solvent B) and run in a gradient mode at a flow rate of 1 mL/min.
# [1] = acute treatment i.p., nonstimulated (sham) mice
compound,measurement,setting,value
"O=C(NC(c1ccccc1)C1CCCCN1)c1cccc(C(F)(F)F)c1Cl [SSR504734, 2-chloro-N-[(S)-phenyl[(2S)-piperidin-2-yl]methyl]-3-trifluoromethyl benzamide monohydrochloride]","glutamate, GABA, adenosine, glycine concentrations in brain structures","14-day treatment, nonstimulated (sham) and MES-stimulated mice",No alterations
same,GABA and glycine concentrations in any of the studied brain regions,acute treatment i.p.,did not alter
same,adenosine concentrations in cortex and hippocampus,acute treatment i.p.,no changes
same,glutamate concentration in cortex and hippocampus,acute treatment i.p.,No alterations
same,glutamate concentration in the brainstem,"acute treatment i.p., mice subjected to the MES test",no statistically significant changes
same,fold decrease of adenosine concentration in the brainstem,[1],~2 fold
same,glutamate concentration in the brainstem,[1],significant decrease
